The text below walks through data of the Kinase Knowledgebase extract (Sharma et al. 2016).

For orientation: GI50 means the concentration at which growth is held to half of that of the control.

Experiment [1] concerns EGFR (Human), P00533 [T790M/L858R]. The conditions noted are these: nci-h1975.
For experiment [2], the system named is EGFR (Human), P00533 [Assessment of Proliferation in EGFR DelE746_A750 Mutant Expressing HCC827 Cells].
Sequence of EGFR (Human), P00533 [Assessment of Proliferation in EGFR DelE746_A750 Mutant Expressing HCC827 Cells] (P00533 whole entry, looked up, stated change not applied): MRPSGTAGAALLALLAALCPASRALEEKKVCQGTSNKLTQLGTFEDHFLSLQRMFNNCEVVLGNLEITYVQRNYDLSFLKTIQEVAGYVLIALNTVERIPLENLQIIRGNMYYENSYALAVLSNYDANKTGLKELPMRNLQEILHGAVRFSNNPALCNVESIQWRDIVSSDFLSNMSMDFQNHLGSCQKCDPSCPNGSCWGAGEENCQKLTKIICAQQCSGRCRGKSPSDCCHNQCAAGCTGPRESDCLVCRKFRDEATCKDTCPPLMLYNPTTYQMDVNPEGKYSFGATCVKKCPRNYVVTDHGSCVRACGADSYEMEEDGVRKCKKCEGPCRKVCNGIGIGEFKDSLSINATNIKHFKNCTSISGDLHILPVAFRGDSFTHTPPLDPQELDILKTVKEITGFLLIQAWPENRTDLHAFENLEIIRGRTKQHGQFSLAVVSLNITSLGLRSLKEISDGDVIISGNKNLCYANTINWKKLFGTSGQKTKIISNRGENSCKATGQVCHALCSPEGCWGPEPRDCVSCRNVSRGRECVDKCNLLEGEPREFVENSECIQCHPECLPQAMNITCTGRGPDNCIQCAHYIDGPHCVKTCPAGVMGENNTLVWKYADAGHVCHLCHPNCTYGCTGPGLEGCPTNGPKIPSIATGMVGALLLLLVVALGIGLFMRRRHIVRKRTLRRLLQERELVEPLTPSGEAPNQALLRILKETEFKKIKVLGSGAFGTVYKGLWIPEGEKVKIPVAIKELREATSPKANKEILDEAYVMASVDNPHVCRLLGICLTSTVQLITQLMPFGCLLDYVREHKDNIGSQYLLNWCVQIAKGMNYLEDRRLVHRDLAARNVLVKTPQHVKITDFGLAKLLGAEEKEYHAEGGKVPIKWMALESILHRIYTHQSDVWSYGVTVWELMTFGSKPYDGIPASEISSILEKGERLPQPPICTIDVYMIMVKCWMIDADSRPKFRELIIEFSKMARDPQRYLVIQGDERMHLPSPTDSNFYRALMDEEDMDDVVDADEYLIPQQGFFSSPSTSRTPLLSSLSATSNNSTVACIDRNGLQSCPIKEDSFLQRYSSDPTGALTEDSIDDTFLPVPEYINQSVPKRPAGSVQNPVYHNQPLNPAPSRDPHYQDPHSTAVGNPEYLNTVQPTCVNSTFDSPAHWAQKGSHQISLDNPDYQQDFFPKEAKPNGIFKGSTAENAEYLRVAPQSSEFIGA

Sequence of EGFR (Human), P00533 [T790M/L858R] (P00533 whole entry T790M/L858R, looked up): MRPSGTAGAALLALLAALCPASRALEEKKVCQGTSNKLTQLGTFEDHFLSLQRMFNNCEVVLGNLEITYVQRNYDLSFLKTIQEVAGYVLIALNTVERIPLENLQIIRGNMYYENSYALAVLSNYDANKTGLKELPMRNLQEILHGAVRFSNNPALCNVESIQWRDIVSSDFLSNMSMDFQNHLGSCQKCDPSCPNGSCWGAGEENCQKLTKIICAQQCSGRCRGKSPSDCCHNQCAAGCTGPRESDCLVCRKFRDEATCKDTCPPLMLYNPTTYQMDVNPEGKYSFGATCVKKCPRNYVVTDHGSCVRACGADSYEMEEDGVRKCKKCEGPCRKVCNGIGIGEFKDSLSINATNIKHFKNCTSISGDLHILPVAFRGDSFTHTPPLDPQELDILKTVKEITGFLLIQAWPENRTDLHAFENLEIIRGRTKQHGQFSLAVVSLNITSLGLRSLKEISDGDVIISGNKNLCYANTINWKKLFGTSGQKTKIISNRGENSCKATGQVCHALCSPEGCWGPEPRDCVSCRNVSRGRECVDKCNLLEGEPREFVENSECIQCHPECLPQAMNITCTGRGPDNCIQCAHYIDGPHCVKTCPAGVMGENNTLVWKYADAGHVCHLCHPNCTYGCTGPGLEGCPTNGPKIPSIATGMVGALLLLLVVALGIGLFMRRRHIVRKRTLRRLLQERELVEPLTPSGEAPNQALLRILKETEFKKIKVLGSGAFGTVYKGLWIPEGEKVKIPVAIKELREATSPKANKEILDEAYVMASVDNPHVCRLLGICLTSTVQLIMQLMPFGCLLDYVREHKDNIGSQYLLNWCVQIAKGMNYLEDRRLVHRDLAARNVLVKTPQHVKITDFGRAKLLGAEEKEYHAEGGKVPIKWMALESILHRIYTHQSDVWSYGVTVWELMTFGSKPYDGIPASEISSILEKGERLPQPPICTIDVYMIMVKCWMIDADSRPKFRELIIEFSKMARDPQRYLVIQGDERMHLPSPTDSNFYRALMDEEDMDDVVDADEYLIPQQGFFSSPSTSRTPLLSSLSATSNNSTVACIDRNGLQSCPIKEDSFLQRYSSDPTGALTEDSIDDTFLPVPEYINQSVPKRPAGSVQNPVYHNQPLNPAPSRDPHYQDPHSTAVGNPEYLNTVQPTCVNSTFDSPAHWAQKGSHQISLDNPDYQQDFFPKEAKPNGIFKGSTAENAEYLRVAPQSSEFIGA

Regarding `C=CC(=O)Nc1cccc(Oc2nc(Nc3ccc(CN(C)C)cc3C)nc3ccsc23)c1`, the GI50 in experiment [1] and in experiment [2] was at most 0.05 µM in each case.
Take `C=CC(=O)Nc1cccc(Oc2nc(Nc3ccc(CN4CCC(N5CCOCC5)CC4)cc3)nc3ccsc23)c1`: the GI50 in experiment [1] and in experiment [2] was at most 0.05 µM in each case.
For the compound `C=CC(=O)Nc1cccc(Oc2nc(Nc3ccc(CC(=O)NC4CCN(C)CC4)cc3)nc3ccsc23)c1`, the results for the GI50 in experiment [1] and in experiment [2] were at most 0.05 µM and 0.1 to 1 µM, respectively.
Take `C=CC(=O)Nc1cccc(Oc2nc(Nc3ccc(OCCOC)cc3)nc3ccsc23)c1`: the GI50 is at most 0.05 µM in experiment [1] and 0.05 to 0.1 µM in experiment [2].
As to `C=CC(=O)Nc1cccc(Nc2nc(Nc3ccc(CCN4CCN(C)CC4)cc3)nc3ccsc23)c1`, the GI50 was at most 0.05 µM in experiment [1] and 0.05 to 0.1 µM in experiment [2].
As to `C=CC(=O)Nc1cccc(Nc2nc(Nc3ccc(C4CCCN(C)C4)cc3)nc3ccsc23)c1` (configuration not stated), the concentration for 50% growth inhibition (GI50) in experiment [1] and in experiment [2] was at most 0.05 µM each time.
Take `C=CC(=O)Nc1cccc(Oc2nc(Nc3ccc(N4CCN(C)CC4)cc3)nc3ccsc23)c1`: the GI50 in experiment [1] and in experiment [2] was at most 0.05 µM throughout.
As to `C=CC(=O)Nc1cccc(Oc2nc(Nc3ccc(N4CCN(C)CC4)c(OC)c3)nc3ccoc23)c1`, the 50% growth inhibitory concentration (GI50) in experiment [1] and in experiment [2] was at most 0.05 µM throughout.
Regarding `C=CC(=O)Nc1cccc(Oc2nc(Nc3ccc(OCCN4CCOCC4)c(F)c3)nc3ccsc23)c1`, the GI50 was at most 0.05 µM in experiment [1] and 0.05 to 0.1 µM in experiment [2].
With `C=CC(=O)Nc1cccc(Oc2nc(Nc3ccc(C(=O)NCCN4CCCC4)cc3OC)nc3ccsc23)c1`, the GI50 in experiment [1] is 0.05 to 0.1 µM; in experiment [2], at most 0.05 µM.
For `C=CC(=O)Nc1cccc(Oc2nc(Nc3ccc(N4CCN(C)CC4)c(F)c3OC)nc3ccsc23)c1` the same measures were at most 0.05 µM and 0.05 to 0.1 µM.
As to `C=CC(=O)Nc1cccc(Oc2nc(Nc3ccc(C4=CCN(C)CC4)cc3)nc3ccsc23)c1`, the GI50 in experiment [1] and in experiment [2] was at most 0.05 µM in each case.
`C=CC(=O)Nc1cccc(Oc2nc(Nc3ccc(N4CC(C)N(C)C(C)C4)cc3)nc3ccsc23)c1` (configuration not stated): the GI50 in experiment [1] and in experiment [2] was at most 0.05 µM each time.
Take `C=CC(=O)Nc1cccc(Nc2nc(Nc3ccc(CN(C)C)cc3)nc3ccsc23)c1`: the GI50 in experiment [1] and in experiment [2] was at most 0.05 µM throughout.
In the case of `C=CC(=O)Nc1cccc(Oc2nc(Nc3ccc(O)cc3)nc3ccsc23)c1`, the GI50 in experiment [1] and in experiment [2] was 0.1 to 1 µM in each case.
On to `C=CC(=O)Nc1cccc(Oc2nc(Nc3ccc4c(ccn4C)c3)nc3ccsc23)c1`, for which the GI50 in experiment [1] was at most 0.05 µM; in experiment [2] it was 0.05 to 0.1 µM.
For `C=CC(=O)Nc1cccc(Oc2nc(Nc3ccc(C4CCN(C(C)C)CC4)cc3)nc3ccsc23)c1` the same measures were at most 0.05 µM and at most 0.05 µM.
Consider `C=CC(=O)Nc1cccc(Oc2nc(Nc3ccc(C4CCN(C)CC4)cc3OC)nc3ccsc23)c1`, for which the 50% growth inhibitory concentration (GI50) in experiment [1] is at most 0.05 µM; in experiment [2], 0.05 to 0.1 µM.
In the case of `C=CC(=O)Nc1ccc(F)c(Nc2nc(Nc3ccc(N4CCN(C)CC4)c(F)c3)nc3ccsc23)c1`, the GI50 in experiment [1] and in experiment [2] was at most 0.05 µM in each case.
Regarding `C=CC(=O)Nc1cccc(Nc2nc(Nc3ccc(NC4CCN(C)CC4)c(F)c3)nc3ccsc23)c1`, the GI50 was 0.05 to 0.1 µM in experiment [1] and at most 0.05 µM in experiment [2].
For `C=CC(=O)Nc1cccc(Oc2nc(Nc3ccc(N4CCC(n5ccnc5)C4)cc3)nc3ccsc23)c1` (configuration not stated) the same measures were at most 0.05 µM and at most 0.05 µM.
With `C=CC(=O)Nc1cccc(Oc2nc(Nc3ccc(N4CCOCC4)cc3)nc3ccsc23)c1`, the GI50 is at most 0.05 µM in experiment [1] and 0.05 to 0.1 µM in experiment [2].
As to `C=CC(=O)Nc1cccc(Oc2nc(Nc3ccc(CN(CC)CC)cc3)nc3ccsc23)c1`, the 50% growth inhibitory concentration (GI50) in experiment [1] and in experiment [2] was at most 0.05 µM in each case.
Turning to `C=CC(=O)Nc1cccc(Oc2nc(Nc3ccc(N4CCN(C)CC4)c(F)c3)nc3ccsc23)c1`, the GI50 in experiment [1] and in experiment [2] was at most 0.05 µM each time.
Regarding `C=CC(=O)Nc1cccc(Oc2nc(Nc3ccc(N4CCN(C5CCN(C)CC5)CC4)nc3)nc3ccsc23)c1`, the GI50 in experiment [1] and in experiment [2] was at most 0.05 µM throughout.
As for `C=CC(=O)Nc1cccc(Oc2nc(Nc3ccc4c(c3)NCCCO4)nc3ccsc23)c1`, the GI50 in experiment [1] and in experiment [2] was at most 0.05 µM throughout.
For `C=CC(=O)Nc1cccc(Oc2nc(Nc3ccc(CN4CCN(C5CCN(C)CC5)CC4)c(Cl)c3)nc3ccsc23)c1`, the GI50 was at most 0.05 µM in experiment [1] and 0.05 to 0.1 µM in experiment [2].
Consider `C=CC(=O)Nc1cccc(Oc2nc(Nc3ccc(S(C)(=O)=O)cc3)nc3ccsc23)c1`, for which the GI50 in experiment [1] is at most 0.05 µM; in experiment [2] it was 0.05 to 0.1 µM.
For `C=CC(=O)Nc1cccc(Oc2nc(Nc3ccc(N4CCC(N5CCCC5)CC4)c(F)c3)nc3ccsc23)c1`, the 50% growth inhibitory concentration (GI50) in experiment [1] and in experiment [2] was at most 0.05 µM in each case.
Consider `C=CC(=O)Nc1cccc(Oc2nc(Nc3ccc(N4CCC(CN(C)C)CC4)cc3)nc3ccsc23)c1`, for which the GI50 in experiment [1] and in experiment [2] was at most 0.05 µM in each case.
Take `C=CC(=O)Nc1cccc(Oc2nc(Nc3ccc(C(=O)OCCCN(C)C)cc3)nc3ccsc23)c1`: the GI50 in experiment [1] and in experiment [2] was 0.05 to 0.1 µM each time.
For `C=CC(=O)Nc1cccc(Oc2nc(Nc3ccc(CN4CCCCC4)cc3)nc3ccsc23)c1`, the concentration for 50% growth inhibition (GI50) in experiment [1] and in experiment [2] was at most 0.05 µM in each case.
On to `C=CC(=O)Nc1cccc(Oc2nc(Nc3ccc(S(=O)(=O)N4CCN(CC)CC4)cc3)nc3ccsc23)c1`, for which the figures for the GI50 in experiment [1] and in experiment [2] were 0.05 to 0.1 µM and at most 0.05 µM, respectively.
With `C=CC(=O)Nc1cccc(Oc2nc(Nc3ccc(CCO)cc3)nc3ccsc23)c1`, the concentration for 50% growth inhibition (GI50) in experiment [1] and in experiment [2] was at most 0.05 µM throughout.
With `C=CC(=O)Nc1cccc(Nc2nc(Nc3ccc(C4CCN(C)CC4)c(F)c3)nc3ccsc23)c1`, the GI50 in experiment [1] and in experiment [2] was at most 0.05 µM throughout.
As to `C=CC(=O)Nc1cccc(Oc2nc(Nc3ccc(OC4CCN(C)CC4)c(F)c3)nc3ccsc23)c1`, the GI50 in experiment [1] and in experiment [2] was at most 0.05 µM in each case.
Consider `C=CC(=O)Nc1cccc(Oc2nc(Nc3ccc(NC4CCN(C(C)C)CC4)nc3)nc3ccsc23)c1`, for which the concentration for 50% growth inhibition (GI50) in experiment [1] and in experiment [2] was 0.05 to 0.1 µM throughout.
In the case of `C=CC(=O)Nc1cccc(Nc2nc(Nc3ccc(N4CCN(CC)CC4)cc3)nc3ccsc23)c1`, the GI50 in experiment [1] and in experiment [2] was at most 0.05 µM throughout.
Consider `C=CC(=O)Nc1cccc(Sc2nc(Nc3ccc(N4CCOCC4)c(F)c3)nc3ccsc23)c1`, for which the GI50 in experiment [1] and in experiment [2] was at most 0.05 µM each time.
For `C=CC(=O)Nc1cccc(Oc2nc(Nc3ccc(N4CCC(N5CCCCC5)CC4)c(F)c3)nc3ccsc23)c1`, the 50% growth inhibitory concentration (GI50) in experiment [1] and in experiment [2] was at most 0.05 µM in each case.
On to `C=CC(=O)Nc1cccc(Oc2nc(Nc3ccc(N4CC[C@@H](n5ccnc5)C4)cc3)nc3ccsc23)c1`, for which the GI50 in experiment [1] was at most 0.05 µM; in experiment [2] it was 0.05 to 0.1 µM.
On to `C=CC(=O)Nc1cccc(Oc2nc(Nc3ccc(CN4CCN(C5CCN(C)CC5)CC4)cc3)nc3ccsc23)c1`, for which the GI50 in experiment [1] and in experiment [2] was at most 0.05 µM throughout.
For `C=CC(=O)Nc1cccc(Oc2nc(Nc3ccc(C(=O)N4CCN(S(=O)(=O)CC)CC4)c(Cl)c3)nc3ccsc23)c1`, the results for the GI50 in experiment [1] and in experiment [2] were 0.05 to 0.1 µM and at most 0.05 µM, respectively.
Consider `C=CC(=O)Nc1cccc(Oc2nc(Nc3ccc(OCCOC)c(F)c3)nc3ccsc23)c1`, for which the GI50 in experiment [1] is at most 0.05 µM; in experiment [2], 0.05 to 0.1 µM.
With `C=CC(=O)Nc1cccc(Oc2nc(Nc3ccc(-n4ccnc4)cc3)nc3ccsc23)c1`, the GI50 is at most 0.05 µM in experiment [1] and 0.05 to 0.1 µM in experiment [2].
In the same order, the values of `C=CC(=O)Nc1cccc(Nc2nc(Nc3ccc(C4CCN(C)CC4)cc3)nc3ccsc23)c1` are at most 0.05 µM and at most 0.05 µM.
As to `C=CC(=O)Nc1cccc(Oc2nc(Nc3ccc(N4CCN(C)CC4)cn3)nc3ccsc23)c1`, the GI50 in experiment [1] and in experiment [2] was at most 0.05 µM in each case.
Consider `C=CC(=O)Nc1cccc(Oc2nc(Nc3ccc(C4CCN(CC)CC4)cc3)nc3ccsc23)c1`, for which the GI50 in experiment [1] and in experiment [2] was at most 0.05 µM throughout.
For `C=CC(=O)Nc1cccc(Oc2nc(Nc3ccc(OCCN(C)C)cc3)nc3ccsc23)c1`, the GI50 in experiment [1] and in experiment [2] was at most 0.05 µM throughout.
For `C=CC(=O)Nc1cccc(Oc2nc(Nc3ccc(C(C)N4CCN(CC)CC4)cc3)nc3ccsc23)c1` (configuration not stated), the GI50 in experiment [1] and in experiment [2] was at most 0.05 µM each time.
`C=CC(=O)Nc1cccc(Oc2nc(Nc3ccc(CN4CCN(C)CC4)cc3)nc3ccsc23)c1`: the GI50 in experiment [1] and in experiment [2] was at most 0.05 µM in each case.
`C=CC(=O)Nc1cccc(Oc2nc(Nc3ccc(N4CCC(N5CCOCC5)CC4)cc3)nc3ccsc23)c1`: the GI50 in experiment [1] and in experiment [2] was at most 0.05 µM throughout.
In the case of `C=CC(=O)Nc1cccc(Oc2nc(Nc3ccc(N4CCN(C(C)(C)C)CC4)cc3)nc3ccsc23)c1`, the GI50 in experiment [1] and in experiment [2] was at most 0.05 µM each time.
On to `C=CC(=O)Nc1cccc(Oc2nc(Nc3ccc(N4CCN(CC(F)F)CC4)cc3)nc3ccsc23)c1`, for which the GI50 in experiment [1] and in experiment [2] was at most 0.05 µM throughout.
In the case of `C=CC(=O)Nc1cccc(Oc2nc(Nc3ccc(N4CCN(C(=O)CN(C)C)CC4)c(F)c3)nc3ccsc23)c1`, the GI50 in experiment [1] and in experiment [2] was at most 0.05 µM each time.
As for `C=CC(=O)Nc1cccc(Nc2nc(Nc3ccc(CN4CCCCC4)cc3OC)nc3ccsc23)c1`, the GI50 in experiment [1] and in experiment [2] was 0.05 to 0.1 µM in each case.
Turning to `C=CC(=O)Nc1cccc(Oc2nc(Nc3ccc(C4CCCN(C)C4)cc3OC)nc3ccsc23)c1` (configuration not stated), the GI50 in experiment [1] and in experiment [2] was at most 0.05 µM each time.
Regarding `C=CC(=O)Nc1cccc(Oc2nc(Nc3ccc(OCCN(CC)CC)c(F)c3)nc3ccsc23)c1`, the GI50 in experiment [1] and in experiment [2] was at most 0.05 µM each time.
For `C=CC(=O)Nc1cccc(Oc2nc(Nc3ccc(CN4CCN(C)CC4)c(F)c3)nc3ccsc23)c1`, the GI50 in experiment [1] and in experiment [2] was at most 0.05 µM in each case.
In the case of `C=CC(=O)Nc1cccc(Oc2nc(Nc3ccc(N4CCNCC4)c(Cl)c3)nc3ccsc23)c1`, the concentration for 50% growth inhibition (GI50) in experiment [1] and in experiment [2] was at most 0.05 µM in each case.
`C=CC(=O)Nc1cccc(Oc2nc(Nc3ccc(NC(=O)N4CCN(C)CC4)cc3)nc3ccsc23)c1`: the GI50 in experiment [1] was at most 0.05 µM; in experiment [2], 0.05 to 0.1 µM.
